Among the test systems are SW-620 colon; MDA-MB-435; HCC-2998 colon; A498 renal; TK-10 renal; SK-OV-3 ovarian; KM12 colon; NCI-H226 lung; ACHN renal; NCI/ADR-RES ovarian.
Holding throughout (experiment): DTP human tumour cell line panel, 48 h

Values joined by “and” are separate entries in the source; they are usually repeats but may differ in a detail not shown here. Identical values can stand only once.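 Tested at 5 concentrations; 48 h exposure; 96-well plates; endpoints linearly interpolated, else capped at highest concentration. Here, GI50 denotes the concentration required for 50% inhibition of growth. The concentration for full growth arrest is given as TGI.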

Consider `CCCc1n(Cc2ccc3ccccc3n2)cc[n+]1Cc1ccc2ccccc2n1`, for which the GI50 in the assay on SW-620 colon is 3.63 µM; with MDA-MB-435 it was 1.13 µM; in the assay on HCC-2998 colon, 0.985 µM; in the assay on A498 renal, 7.21 µM; with TK-10 renal, 2.84 µM; in the assay on SK-OV-3 ovarian, 2.44 µM. For the same compound, the GI50 was 0.991 µM with KM12 colon, 3.26 µM in the assay on NCI-H226 lung, 33.4 µM in the assay on ACHN renal and > 100 µM in the assay on NCI/ADR-RES ovarian. Besides, the total growth inhibition concentration (TGI) stood at 25 µM in the assay on SW-620 colon; 11.9 µM in the assay with MDA-MB-435; 14.8 µM in the assay on HCC-2998 colon; 35 µM in the assay on A498 renal; 12.7 µM in the assay on TK-10 renal; 9.68 µM in the assay with SK-OV-3 ovarian. The TGI in the assay on KM12 colon is 11.9 µM; in the assay with NCI-H226 lung, 26.2 µM; with ACHN renal it was > 100 µM; in the assay on NCI/ADR-RES ovarian it was > 100 µM.

`Cc1cc(C#Cc2ccccc2)ccc1-n1c(/C=C/c2cc(O)ccc2O)nc2ccccc2c1=O`: the GI50 in the assay with SW-620 colon is 1.71 µM; in the assay on MDA-MB-435, 1.67 µM; in the assay on HCC-2998 colon, 1.36 µM; in the assay with A498 renal, 0.37 µM; in the assay on TK-10 renal, 2.03 µM; in the assay with SK-OV-3 ovarian, 1.83 µM. For the same compound, the GI50 in the assay on KM12 colon is 1.65 µM; in the assay on NCI-H226 lung, 1.52 µM; in the assay with ACHN renal it was 1.44 µM; with NCI/ADR-RES ovarian it was 2.06 µM. Further, the TGI in the assay with SW-620 colon turned out to be 3.51 µM; in the assay on MDA-MB-435, 3.53 µM; in the assay on HCC-2998 colon, 2.64 µM; in the assay on A498 renal it was 2.63 µM; in the assay on TK-10 renal, 5.61 µM; in the assay on SK-OV-3 ovarian, 4.61 µM. In addition, the TGI in the assay with KM12 colon amounted to 3.07 µM; in the assay on NCI-H226 lung, 3.93 µM; in the assay on ACHN renal, 2.75 µM; with NCI/ADR-RES ovarian, 5.22 µM.

For the compound `COc1cc(-c2nn(-c3cccc(NC(=O)CCN4CCN(C)CC4)c3)cc2-c2ccncc2)ccc1Cl`, the GI50 in the assay on SW-620 colon was 0.443 µM; in the assay on MDA-MB-435, 0.283 µM; with HCC-2998 colon it was 1.86 µM; in the assay on A498 renal it was 0.412 µM; in the assay on TK-10 renal, 3.8 µM; in the assay on SK-OV-3 ovarian, 1.81 µM. Also, the GI50 in the assay with KM12 colon is 1.36 µM; in the assay on NCI-H226 lung, 3.67 µM; with ACHN renal, 1.61 µM; in the assay with NCI/ADR-RES ovarian it was 2.62 µM. Moreover, the TGI in the assay with SW-620 colon came to 1.86 µM; in the assay with MDA-MB-435 it was 1.13 µM; with HCC-2998 colon, 3.79 µM; in the assay on A498 renal it was 3.23 µM; in the assay with TK-10 renal it was 14.6 µM; in the assay on SK-OV-3 ovarian it was 7.34 µM. Also, the TGI in the assay on KM12 colon amounted to 4.59 µM; with NCI-H226 lung, 22.3 µM; in the assay with ACHN renal it was 10.7 µM; in the assay with NCI/ADR-RES ovarian, 8.76 µM.

Turning to `COc1ccc2c(c1)C(=O)c1c-2c(N2CCN(C(=O)CCNCCNCCO)CC2)nc2ccccc12`, the GI50 was 2.26 µM in the assay with SW-620 colon; 21.7 µM with MDA-MB-435; 13.8 µM in the assay on HCC-2998 colon; 18.7 µM with A498 renal; 22.5 µM in the assay with TK-10 renal; 15.9 µM in the assay with SK-OV-3 ovarian. Moreover, the GI50 in the assay with KM12 colon is 16.3 µM; in the assay on NCI-H226 lung it was 22.6 µM; with ACHN renal, 16 µM; in the assay on NCI/ADR-RES ovarian it was 18 µM. In addition, the TGI with SW-620 colon turned out to be 5.17 µM; in the assay on MDA-MB-435, 47.8 µM; in the assay with HCC-2998 colon, 30.1 µM; in the assay on A498 renal, 34.4 µM; with TK-10 renal, 43.1 µM; in the assay with SK-OV-3 ovarian, 30.9 µM. For the same compound, the TGI worked out at 53.1 µM with KM12 colon, 48.1 µM in the assay with NCI-H226 lung, 30.8 µM in the assay with ACHN renal and 36.1 µM in the assay on NCI/ADR-RES ovarian.

In the case of `COc1ccc2nc3cc(Cl)ccc3c(Nc3cc(C(C)C)c(O)cc3C)c2c1`, the GI50 in the assay with SW-620 colon is 1.77 µM; with MDA-MB-435, 1.8 µM; with HCC-2998 colon, 2.22 µM; with A498 renal, 2.05 µM; in the assay on TK-10 renal, 1.75 µM; in the assay with SK-OV-3 ovarian, 2.39 µM. Moreover, the GI50 in the assay with KM12 colon is 2.2 µM; with NCI-H226 lung, 2.23 µM; with ACHN renal it was 2.22 µM; in the assay with NCI/ADR-RES ovarian, 2.76 µM. Besides, the TGI was 3.37 µM with SW-620 colon; 4.48 µM in the assay on MDA-MB-435; 5.58 µM with HCC-2998 colon; 6.58 µM with A498 renal; 6.65 µM with TK-10 renal; 6.88 µM with SK-OV-3 ovarian. The TGI in the assay on KM12 colon worked out at 4.67 µM; with NCI-H226 lung, 6.64 µM; in the assay with ACHN renal it was 5.08 µM; in the assay on NCI/ADR-RES ovarian, 8.01 µM.

`CNc1ncc2cc(-c3cc(NC(=O)NCCC(C)(C)C)c(F)cc3C)c(C)nc2n1`: the GI50 was 0.27 µM and 0.256 µM in the assay with SW-620 colon; 0.0299 µM and 0.0389 µM with MDA-MB-435; 0.283 µM and 0.207 µM with HCC-2998 colon; 0.149 µM and 0.167 µM in the assay with A498 renal; 0.241 µM and 0.243 µM in the assay on TK-10 renal; 0.359 µM and 0.431 µM in the assay on SK-OV-3 ovarian. The GI50 in the assay on KM12 colon was 0.405 µM and 0.448 µM; in the assay on NCI-H226 lung, 1.11 µM and 0.298 µM; in the assay with ACHN renal, 0.198 µM and 0.262 µM; in the assay on NCI/ADR-RES ovarian, 1.5 µM and 1.35 µM. Besides, the TGI in the assay on SW-620 colon is > 100 µM; with MDA-MB-435 it was > 39.4 µM; with HCC-2998 colon, > 77.2 µM; with A498 renal it was 0.743 µM and 0.65 µM; in the assay with TK-10 renal, 5.07 µM and 6.79 µM; in the assay with SK-OV-3 ovarian, 4.36 µM and 5.87 µM. Further, the TGI with KM12 colon was > 100 µM; in the assay on NCI-H226 lung, > 100 µM; in the assay with ACHN renal, > 24.6 µM; in the assay on NCI/ADR-RES ovarian, > 100 µM.

The term GI50 denotes the concentration that inhibits growth by half. Usually TGI stands for the concentration at which net growth stops. High values mean less potent growth arrest, low ones more potent growth arrest.

(Values after PubChem BioAssay (NCI).)
